Results: US20250129069A1, “TRIAZOLO WRN INHIBITORS” (Nimbus Wadjet, Inc., priority 2023, published 2025)
Where two headings read alike, the source gives them in different places.

What was measured:
[1] = test system: p21 induction in HCT 116 cells; assay: p21 induction in cells (In-Cell Western, p21/GAPDH ratio); format: cell-based; details: 24 h compound incubation, read-out: p21_EC50
Summary of the method: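 EC50 values come from nonlinear fits of percent activation, defined by the 800/700 nm p21-to-GAPDH ratio scaled between DMSO (low) and internal WRN inhibitor (high) controls. In-Cell Western read after 24 h compound exposure of HCT 116 cells at 37° C. Duplicate 11-point series, 2-fold steps, usually starting at 10 μM.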

[2] = biological target: human Werner helicase (WRN, amino acids 517-1235 with L1074F point mutation) (Homo sapiens (Human), UniProt Q14191, L1074F); assay: WRN (BV08) ADP-Glo assay; format: biochemical; details: human WRN (aa 517-1235, L1074F), read-out: ADP-Glo_hWRN_IC50
Summary of the method: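 ADP-Glo luminescence read after 60 min, 25 °C reaction of 0.15 nM WRN (517-1235, L1074F, Sf9-expressed, tag removed) with 0.1 nM DNA duplex and 5 μM ATP, following 15 min compound preincubation; 20 mM Bicine pH 7.5, 1% DMSO. IC50 from 3- or 4-parameter fit of % inhibition.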

Chain of human Werner helicase (WRN, amino acids 517-1235 with L1074F point mutation) (Q14191 other isoform, or with tags, fused parts or gaps L1074F (already in the parent)): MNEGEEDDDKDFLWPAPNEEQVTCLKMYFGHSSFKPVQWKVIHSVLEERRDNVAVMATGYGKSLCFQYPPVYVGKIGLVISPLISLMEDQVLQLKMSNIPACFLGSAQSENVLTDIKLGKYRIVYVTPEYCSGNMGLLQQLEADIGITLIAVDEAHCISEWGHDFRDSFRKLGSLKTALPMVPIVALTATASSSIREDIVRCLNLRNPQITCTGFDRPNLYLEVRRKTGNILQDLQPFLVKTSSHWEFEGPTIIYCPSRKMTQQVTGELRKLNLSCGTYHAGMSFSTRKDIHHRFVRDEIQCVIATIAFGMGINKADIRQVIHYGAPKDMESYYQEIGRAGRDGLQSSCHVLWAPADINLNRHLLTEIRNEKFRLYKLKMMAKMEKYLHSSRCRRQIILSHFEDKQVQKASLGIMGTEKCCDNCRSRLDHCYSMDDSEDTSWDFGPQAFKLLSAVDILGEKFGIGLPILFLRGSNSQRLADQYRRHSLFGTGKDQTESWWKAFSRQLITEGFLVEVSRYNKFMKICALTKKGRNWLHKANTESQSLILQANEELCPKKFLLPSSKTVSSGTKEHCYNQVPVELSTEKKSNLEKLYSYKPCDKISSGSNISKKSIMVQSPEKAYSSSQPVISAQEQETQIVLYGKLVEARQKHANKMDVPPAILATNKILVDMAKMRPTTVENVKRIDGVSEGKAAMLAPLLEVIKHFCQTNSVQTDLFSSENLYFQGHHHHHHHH

Row | SMILES | EC50 [1] [nM] | IC50 [2] [nM] | EC50 ([1]; Homo sapiens) [nM]
1 | CCc1c(N2CCN(C(=O)c3ncnc(C)c3O)[C@H]3CC[C@@H]32)c(=O)c2nn(-c3ccnc(OC)c3)nc2n1CC(=O)NC12CC(C(F)(F)F)(C1)C2 [Compound I-54, 2-{5-ethyl-6-[(1S,6S)-5-(5-hydroxy-6-methylpyrimidine-4-carbonyl)-2,5-diazabicyclo[4.2.0]octan-2-yl]-2-(2-methoxypyridin-4-yl)-7-oxo-2H,4H,7H-[1,2,3]triazolo[4,5-b]pyridin-4-yl}-N-[3-(trifluoromethyl)bicyclo[1.1.1]pentan-1-yl]acetamide] | ≤ 500 | 5 to 50 | –
2 | CCc1c(N2CCN(C(=O)c3c(OC(F)F)ncc(C)c3O)CC2)c(=O)c2nn(-c3ccnc(OC)c3)nc2n1CC(=O)NC12CC(C(C)C)(C1)C2 [Compound I-56, 2-(6-{4-[2-(difluoromethoxy)-4-hydroxy-5-methylpyridine-3-carbonyl]piperazin-1-yl}-5-ethyl-2-(2-methoxypyridin-4-yl)-7-oxo-2H,4H,7H-[1,2,3]triazolo[4,5-b]pyridin-4-yl)-N-[3-(propan-2-yl)bicyclo[1.1.1]pentan-1-yl]acetamide] | – | 5 to 50 | ≤ 500
3 | CCc1c(N2CCN(C(=O)c3ncnc(C)c3O)[C@H]3CC[C@@H]32)c(=O)c2nn(-c3cnn(C4CC4)c3)nc2n1CC(=O)Nc1ccc(C(F)(F)F)cc1Cl [Compound I-57, N-[2-chloro-4-(trifluoromethyl)phenyl]-2-[2-(1-cyclopropyl-1H-pyrazol-4-yl)-5-ethyl-6-[(1S,6S)-5-(5-hydroxy-6-methylpyrimidine-4-carbonyl)-2,5-diazabicyclo[4.2.0]octan-2-yl]-7-oxo-2H,4H,7H-[1,2,3]triazolo[4,5-b]pyridin-4-yl]acetamide] | – | ≤ 5 | ≤ 500
4 | CCc1c(N2CCN(C(=O)c3ncnc(C)c3O)[C@H]3CC[C@@H]32)c(=O)c2nn(-c3cnn(C4CC4)c3)nc2n1CC(=O)NC12CC(C(C)C)(C1)C2 [Compound I-58, 2-[2-(1-cyclopropyl-1H-pyrazol-4-yl)-5-ethyl-6-[(1S,6S)-5-(5-hydroxy-6-methylpyrimidine-4-carbonyl)-2,5-diazabicyclo[4.2.0]octan-2-yl]-7-oxo-2H,4H,7H-[1,2,3]triazolo[4,5-b]pyridin-4-yl]-N-[3-(propan-2-yl)bicyclo[1.1.1]pentan-1-yl]acetamide] | ≤ 500 | 5 to 50 | –
5 | CCc1c(N2CCN(C(=O)c3ncnc(C)c3O)[C@H]3CC[C@@H]32)c(=O)c2nn(-c3ccnc(C)c3)nc2n1CC(=O)Nc1ccc(C(F)(F)F)cc1F [Compound I-59, 2-{5-ethyl-6-[(1S,6S)-5-(5-hydroxy-6-methylpyrimidine-4-carbonyl)-2,5-diazabicyclo[4.2.0]octan-2-yl]-2-(2-methylpyridin-4-yl)-7-oxo-2H,4H,7H-[1,2,3]triazolo[4,5-b]pyridin-4-yl}-N-[2-fluoro-4-(trifluoromethyl)phenyl]acetamide] | – | ≤ 5 | ≤ 500
6 | CCc1c(N2CCN(C(=O)c3ncnc(C)c3O)[C@H]3CC[C@@H]32)c(=O)c2nn(-c3ccnc(OC)c3)nc2n1CC(=O)NC12CC(C(C)(F)F)(C1)C2 [Compound I-61, N-[3-(1,1-difluoroethyl)bicyclo[1.1.1]pentan-1-yl]-2-{5-ethyl-6-[(1S,6S)-5-(5-hydroxy-6-methylpyrimidine-4-carbonyl)-2,5-diazabicyclo[4.2.0]octan-2-yl]-2-(2-methoxypyridin-4-yl)-7-oxo-2H,4H,7H-[1,2,3]triazolo[4,5-b]pyridin-4-yl}acetamide] | ≤ 500 | 5 to 50 | –
7 | CCc1c(N2CCN(C(=O)c3c(Oc4cnn(C)c4)ncc(C)c3O)CC2)c(=O)c2nn(-c3ccnc(OC)c3)nc2n1CC(=O)NC12CC(C(C)C)(C1)C2 [Compound I-63, 2-[5-ethyl-6-(4-{4-hydroxy-5-methyl-2-[(1-methyl-1H-pyrazol-4-yl)oxy]pyridine-3-carbonyl}piperazin-1-yl)-2-(2-methoxypyridin-4-yl)-7-oxo-2H,4H,7H-[1,2,3]triazolo[4,5-b]pyridin-4-yl]-N-[3-(propan-2-yl)bicyclo[1.1.1]pentan-1-yl]acetamide] | – | 5 to 50 | ≤ 500

More lines, now with the values ahead:

Row | EC50 [1] [nM] | IC50 [2] [nM] | EC50 ([1]; Homo sapiens) [nM] | SMILES
8 | – | 5 to 50 | ≤ 500 | CCc1c(N2CCN(C(=O)c3c(OC)ncc(OC)c3O)CC2)c(=O)c2nn(-c3ccnc(OC)c3)nc2n1CC(=O)NC12CC(C(C)C)(C1)C2 [Compound I-64, 2-{5-ethyl-6-[4-(4-hydroxy-2,5-dimethoxypyridine-3-carbonyl)piperazin-1-yl]-2-(2-methoxypyridin-4-yl)-7-oxo-2H,4H,7H-[1,2,3]triazolo[4,5-b]pyridin-4-yl}-N-[3-(propan-2-yl)bicyclo[1.1.1]pentan-1-yl]acetamide]
9 | – | 5 to 50 | 500 to 2000 | CCc1c(N2CCN(C(=O)c3c(OC)ncc(C4CC4)c3O)CC2)c(=O)c2nn(-c3ccnc(OC)c3)nc2n1CC(=O)NC12CC(C(C)C)(C1)C2 [Compound I-65, 2-{6-[4-(5-cyclopropyl-4-hydroxy-2-methoxypyridine-3-carbonyl)piperazin-1-yl]-5-ethyl-2-(2-methoxypyridin-4-yl)-7-oxo-2H,4H,7H-[1,2,3]triazolo[4,5-b]pyridin-4-yl}-N-[3-(propan-2-yl)bicyclo[1.1.1]pentan-1-yl]acetamide]
10 | – | 5 to 50 | ≤ 500 | CCc1c(N2CCN(C(=O)c3ncnc(C)c3O)[C@H]3CC[C@@H]32)c(=O)c2nn(-c3ccnc(OC)c3)nc2n1CC(=O)NC1CCC2(CCC2)C1 (stereo partly drawn) [Compound I-66, 2-{5-ethyl-6-[(1S,6S)-5-(5-hydroxy-6-methylpyrimidine-4-carbonyl)-2,5-diazabicyclo[4.2.0]octan-2-yl]-2-(2-methoxypyridin-4-yl)-7-oxo-2H,4H,7H-[1,2,3]triazolo[4,5-b]pyridin-4-yl}-N-{spiro[3.4]octan-6-yl}acetamide]
11 | – | 5 to 50 | > 5000 | CCc1c(N2CCN(C(=O)c3ncnc(C)c3O)[C@H]3CC[C@@H]32)c(=O)c2nn(-c3ccnc(OC)c3)nc2n1CC(=O)NC1CCC2(CC1)CC2(F)F (stereo partly drawn) [Compound I-67, N-{1,1-difluorospiro[2.5]octan-6-yl}-2-{5-ethyl-6-[(1S,6S)-5-(5-hydroxy-6-methylpyrimidine-4-carbonyl)-2,5-diazabicyclo[4.2.0]octan-2-yl]-2-(2-methoxypyridin-4-yl)-7-oxo-2H,4H,7H-[1,2,3]triazolo[4,5-b]pyridin-4-yl}acetamide]
12 | – | 5 to 50 | > 5000 | CCc1c(N2CCN(C(=O)c3ncnc(C)c3O)[C@H]3CC[C@@H]32)c(=O)c2nn(-c3ccnc(OC)c3)nc2n1CC(=O)NC1CC2(CCC(F)(F)CC2)C1 [Compound I-68, N-{7,7-difluorospiro[3.5]nonan-2-yl}-2-{5-ethyl-6-[(1S,6S)-5-(5-hydroxy-6-methylpyrimidine-4-carbonyl)-2,5-diazabicyclo[4.2.0]octan-2-yl]-2-(2-methoxypyridin-4-yl)-7-oxo-2H,4H,7H-[1,2,3]triazolo[4,5-b]pyridin-4-yl}acetamide]
13 | – | 5 to 50 | 500 to 2000 | CCc1c(N2CCN(C(=O)c3ncnc(C)c3O)[C@H]3CC[C@@H]32)c(=O)c2nn(-c3ccnc(OC)c3)nc2n1CC(=O)NC1CC2(C1)CC2F (stereo partly drawn) [Compound I-69, 2-{5-ethyl-6-[(1S,6S)-5-(5-hydroxy-6-methylpyrimidine-4-carbonyl)-2,5-diazabicyclo[4.2.0]octan-2-yl]-2-(2-methoxypyridin-4-yl)-7-oxo-2H,4H,7H-[1,2,3]triazolo[4,5-b]pyridin-4-yl}-N-{1-fluorospiro[2.3]hexan-5-yl}acetamide]
14 | – | 5 to 50 | 500 to 2000 | CCc1c(N2CCN(C(=O)c3ncnc(C)c3O)[C@H]3CC[C@@H]32)c(=O)c2nn(-c3ccnc(OC)c3)nc2n1CC(=O)NC1CC2(C1)CC(F)(F)C2 [Compound I-70, N-{6,6-difluorospiro[3.3]heptan-2-yl}-2-{5-ethyl-6-[(1S,6S)-5-(5-hydroxy-6-methylpyrimidine-4-carbonyl)-2,5-diazabicyclo[4.2.0]octan-2-yl]-2-(2-methoxypyridin-4-yl)-7-oxo-2H,4H,7H-[1,2,3]triazolo[4,5-b]pyridin-4-yl}acetamide]
15 | – | 100 to 500 | > 5000 | CCc1c(N2CCN(C(=O)c3ncnc(C)c3O)[C@H]3CC[C@@H]32)c(=O)c2nn(-c3ccnc(OC)c3)nc2n1CC(=O)NC1CC2(CCC2)C1OC (stereo partly drawn) [Compound I-71, 2-{5-ethyl-6-[(1S,6S)-5-(5-hydroxy-6-methylpyrimidine-4-carbonyl)-2,5-diazabicyclo[4.2.0]octan-2-yl]-2-(2-methoxypyridin-4-yl)-7-oxo-2H,4H,7H-[1,2,3]triazolo[4,5-b]pyridin-4-yl}-N-{1-methoxyspiro[3.3]heptan-2-yl}acetamide]
16 | – | 5 to 50 | 2000 to 5000 | CCc1c(N2CCN(C(=O)c3ncnc(C)c3O)[C@H]3CC[C@@H]32)c(=O)c2nn(-c3ccnc(OC)c3)nc2n1CC(=O)NC1CC2(C1)CC(C)(C)C2 [Compound I-72, N-{6,6-dimethylspiro[3.3]heptan-2-yl}-2-{5-ethyl-6-[(1S,6S)-5-(5-hydroxy-6-methylpyrimidine-4-carbonyl)-2,5-diazabicyclo[4.2.0]octan-2-yl]-2-(2-methoxypyridin-4-yl)-7-oxo-2H,4H,7H-[1,2,3]triazolo[4,5-b]pyridin-4-yl}acetamide]
